Among the data in PubChem BioAssay (NCI) are TGI values, retold here.

SMILES strings stand for the structures.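 All cell lines were grown in 96-well plates and treated with compound for 48 hours. The concentration for full growth arrest is given as TGI.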

Holding throughout (experiment): NCI-60 cell line screen, 48 h
In experiment [1] the test system is DU-145 prostate.
Experiment [2] deals with MDA-N.
The subject of experiment [3] is M14 melanoma.
For experiment [4], the system named is NCI/ADR-RES ovarian.
Experiment [5] relates to OVCAR-8 ovarian.
Experiment [6] deals with MDA-MB-231 breast.
Experiment [7] relates to K-562 leukemia.
The test system of experiment [8] is IGROV1 ovarian.
Experiment [9] deals with U251 CNS.
For experiment [10], the system named is SK-MEL-5 melanoma.
Experiment [11] deals with UO-31 renal.
For experiment [12], the system named is HOP-62 NSCLC.
Experiment [13] deals with MCF7 breast.
In experiment [14] the test system is CCRF-CEM leukemia.
The subject of experiment [15] is SF-268 CNS.
Experiment [16] deals with HL-60(TB) leukemia.
The subject of experiment [17] is NCI-H460 lung.
In experiment [18] the test system is RXF 393 renal.
For experiment [19], the system named is T-47D breast.
The subject of experiment [20] is HOP-92 NSCLC.

With `CC(=O)Oc1ccc2c(C)cc(=O)oc2c1OC(C)=O`, the TGI in experiment [1] was more than 100 µM; in experiment [2], more than 100 µM; in [3] it was more than 100 µM; in experiment [4], 78.6 µM; in [5], more than 100 µM; in experiment [6] it was more than 100 µM. For the same compound, the TGI is more than 100 µM in experiment [7]; 92.9 µM in [8]; more than 100 µM in experiment [9]; more than 100 µM in experiment [10]; 76.9 µM in [11]; more than 100 µM in experiment [12]. Besides, the TGI in experiment [13] is more than 100 µM; in [14], 83.7 µM; in [15] it was more than 100 µM.

For `Cn1ccc(C(=O)NCCN(CCNC(=O)c2ccn(C)c(=O)c2O)CCNC(=O)c2cccc(=O)n2O)c(O)c1=O`, the TGI in experiment [1], in experiment [16], in experiment [3], in [17], in experiment [4] and in experiment [18] was more than 100 µM throughout. Moreover, the TGI in experiment [5], in experiment [6], in experiment [19], in [7], in experiment [8] and in [20] was more than 100 µM each time. Also, the TGI in experiment [9], in experiment [10], in [11], in experiment [12], in experiment [13] and in experiment [14] was more than 100 µM each time. This compound had a TGI in experiment [15] of more than 100 µM.

As to `COc1ccc(S(=O)(=O)c2nnc(S(=O)(=O)Cc3ccccc3)s2)cc1`, the TGI is 33 µM in experiment [1]; 33.1 µM in experiment [3]; 38.1 µM in experiment [17]; more than 100 µM in experiment [4]; 31.2 µM in [18]; 49.4 µM in experiment [5]. Moreover, the TGI was 62.3 µM in [6]; 91.9 µM in experiment [19]; more than 100 µM in experiment [7]; 52.3 µM in experiment [9]; 34.2 µM in [10]; 43.4 µM in [11]. Further, the TGI was 75.5 µM in [12], 60.6 µM in experiment [13] and more than 100 µM in [15].

For the compound `CN(C)CCC(=O)c1ccccc1`, the TGI was more than 64.2 µM in experiment [16]; 52.6 µM in experiment [3]; more than 73.5 µM in experiment [17]; 61.6 µM in experiment [18]; more than 71.9 µM in [5]; 85.4 µM in [7]. Further, the TGI was more than 71 µM in experiment [8]; 44.6 µM in experiment [20]; more than 69.4 µM in experiment [9]; more than 56.9 µM in [10]; more than 68.8 µM in experiment [11]; more than 100 µM in [12]. For the same compound, the TGI is 62.4 µM in [14] and more than 74.7 µM in experiment [15].

Turning to `CN=C1CC2c3cc(OC)c(OC)cc3CCN2C2=C1C(=O)CC(C)(C)C2` (configuration not stated), the TGI in experiment [16], in experiment [17], in experiment [18], in [5], in experiment [20] and in experiment [9] was more than 100 µM in each case. For the same compound, the TGI in [10], in experiment [11], in experiment [14] and in experiment [15] was more than 100 µM in each case.

For `COC(=O)/C=C(\C)CC(O)/C=C(\C)CCC=C(C)C` (configuration not stated), the TGI in [16] was 46.2 µM; in [2], more than 100 µM; in experiment [3], more than 100 µM; in experiment [17] it was more than 100 µM; in experiment [4], 67.9 µM; in experiment [18] it was more than 100 µM. In addition, the TGI in experiment [5], in experiment [6], in experiment [7], in experiment [8], in experiment [20] and in experiment [9] was more than 100 µM each time. Further, the TGI was 42.7 µM in experiment [10]; more than 100 µM in experiment [11]; more than 100 µM in experiment [12]; more than 100 µM in [13]; 94.1 µM in [14].

Regarding `Cc1ccc(-n2c(N)c(C#N)c3[nH]nc(N)c3c2=O)cc1`, the TGI in [1], in [16], in experiment [3], in [17], in experiment [4] and in [18] was more than 100 µM in each case. Further, the TGI in [5], in experiment [6], in experiment [19], in [7], in experiment [8] and in [20] was more than 100 µM each time. The TGI in experiment [9], in experiment [10], in [11], in experiment [12], in [13] and in experiment [14] was more than 100 µM in each case. Further, the TGI in experiment [15] was more than 100 µM.

Consider `Cn1c(=O)n(C2(C)C[Se]C2)c2ccccc21`, for which the TGI in experiment [16], in experiment [3], in [17], in experiment [18], in experiment [5] and in experiment [7] was more than 100 µM in each case. Also, the TGI in experiment [8], in experiment [20], in [9], in experiment [10], in experiment [11] and in experiment [12] was more than 100 µM throughout. Besides, the TGI in experiment [14] and in experiment [15] was more than 100 µM throughout.

As to `CC1CCC(=O)C(C(=O)CC2CC(=O)N(C)C(=O)C2)C1` (configuration not stated), the TGI in [1], in [16], in experiment [3], in experiment [17], in experiment [4] and in [18] was more than 100 µM throughout. Moreover, the TGI in experiment [5], in [6], in experiment [19], in experiment [7], in [8] and in experiment [20] was more than 100 µM each time. Moreover, the TGI in experiment [9], in [10], in [11], in [12], in experiment [13] and in [14] was more than 100 µM throughout. This compound had a TGI in experiment [15] of more than 100 µM.
